Source: PubChem BioAssay (NCI)
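Compound exposure: 48 hours, 5 concentrations, 96-well plates. The concentration for full growth arrest is given as TGI.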

What was measured:
Test in all cases: NCI anticancer screen, dose series, 48 h
786-0 renal = system: 786-0 renal
A498 renal = system: A498 renal
A549 NSCLC = system: A549 NSCLC
ACHN renal = system: ACHN renal
CAKI-1 renal = system: CAKI-1 renal
CCRF-CEM leukemia = system: CCRF-CEM leukemia
COLO 205 colon = system: COLO 205 colon
DLD-1 colon = system: DLD-1 colon
DMS 114 small cell lung = system: DMS 114 small cell lung
DMS 273 small cell lung = system: DMS 273 small cell lung
EKVX NSCLC = system: EKVX NSCLC
HCC-2998 colon = system: HCC-2998 colon
HCT-116 colon = system: HCT-116 colon
HCT-15 colon = system: HCT-15 colon
HL-60(TB) leukemia = system: HL-60(TB) leukemia
HOP-18 NSCLC = system: HOP-18 NSCLC
HOP-62 NSCLC = system: HOP-62 NSCLC
HOP-92 NSCLC = system: HOP-92 NSCLC
HT29 colon = system: HT29 colon
IGROV1 ovarian = system: IGROV1 ovarian
K-562 leukemia = system: K-562 leukemia
KM12 colon = system: KM12 colon
KM20L2 colon = system: KM20L2 colon
LOX IMVI melanoma = system: LOX IMVI melanoma
LXFL 529 NSCLC = system: LXFL 529 NSCLC
M14 melanoma = system: M14 melanoma
M19-MEL melanoma = system: M19-MEL melanoma
MALME-3M melanoma = system: MALME-3M melanoma
MOLT-4 leukemia = system: MOLT-4 leukemia
NCI-H226 lung = system: NCI-H226 lung
NCI-H23 lung = system: NCI-H23 lung
NCI-H460 lung = system: NCI-H460 lung
OVCAR-3 ovarian = system: OVCAR-3 ovarian
OVCAR-4 ovarian = system: OVCAR-4 ovarian
OVCAR-5 ovarian = system: OVCAR-5 ovarian
OVCAR-8 ovarian = system: OVCAR-8 ovarian
RPMI-8226 leukemia = system: RPMI-8226 leukemia
RXF 393 renal = system: RXF 393 renal
RXF-631 renal = system: RXF-631 renal
SF-268 CNS = system: SF-268 CNS
SF-295 CNS = system: SF-295 CNS
SF-539 CNS = system: SF-539 CNS
SK-MEL-2 melanoma = system: SK-MEL-2 melanoma
SK-MEL-28 melanoma = system: SK-MEL-28 melanoma
SK-MEL-5 melanoma = system: SK-MEL-5 melanoma
SK-OV-3 ovarian = system: SK-OV-3 ovarian
SN12C renal = system: SN12C renal
SNB-19 CNS = system: SNB-19 CNS
SNB-75 CNS = system: SNB-75 CNS
SR leukemia = system: SR leukemia
SW-620 colon = system: SW-620 colon
TK-10 renal = system: TK-10 renal
U251 CNS = system: U251 CNS
UACC-257 melanoma = system: UACC-257 melanoma
UACC-62 melanoma = system: UACC-62 melanoma
UO-31 renal = system: UO-31 renal
XF 498 CNS = system: XF 498 CNS
NCI-H522 lung = system: NCI-H522 lung
SNB-78 CNS = system: SNB-78 CNS

## O=C1N[C@@H](O)[C@@H]2ON=C(c3ccccc3)[C@H]12
786-0 renal
  TGI: > 100 µM
A498 renal
  TGI: > 100 µM
A549 NSCLC
  TGI: > 100 µM
ACHN renal
  TGI: > 100 µM
CAKI-1 renal
  TGI: > 100 µM
CCRF-CEM leukemia
  TGI: > 100 µM
COLO 205 colon
  TGI: > 100 µM
DLD-1 colon
  TGI: > 100 µM
DMS 114 small cell lung
  TGI: > 100 µM
DMS 273 small cell lung
  TGI: > 100 µM
EKVX NSCLC
  TGI: > 100 µM
HCC-2998 colon
  TGI: > 100 µM
HCT-116 colon
  TGI: > 100 µM
HCT-15 colon
  TGI: > 100 µM
HL-60(TB) leukemia
  TGI: > 100 µM
HOP-18 NSCLC
  TGI: > 100 µM
HOP-62 NSCLC
  TGI: > 100 µM
HOP-92 NSCLC
  TGI: > 100 µM
HT29 colon
  TGI: > 100 µM
IGROV1 ovarian
  TGI: > 100 µM
K-562 leukemia
  TGI: > 100 µM
KM12 colon
  TGI: > 100 µM
KM20L2 colon
  TGI: > 100 µM
LOX IMVI melanoma
  TGI: > 100 µM
LXFL 529 NSCLC
  TGI: > 100 µM
M14 melanoma
  TGI: > 100 µM
M19-MEL melanoma
  TGI: > 100 µM
MALME-3M melanoma
  TGI: > 100 µM
MOLT-4 leukemia
  TGI: > 100 µM
NCI-H226 lung
  TGI: > 100 µM
NCI-H23 lung
  TGI: > 100 µM
NCI-H460 lung
  TGI: > 100 µM
OVCAR-3 ovarian
  TGI: > 100 µM
OVCAR-4 ovarian
  TGI: > 100 µM
OVCAR-5 ovarian
  TGI: > 100 µM
OVCAR-8 ovarian
  TGI: > 100 µM
RPMI-8226 leukemia
  TGI: > 100 µM
RXF 393 renal
  TGI: > 100 µM
RXF-631 renal
  TGI: > 100 µM
SF-268 CNS
  TGI: > 100 µM
SF-295 CNS
  TGI: > 100 µM
SF-539 CNS
  TGI: > 100 µM
SK-MEL-2 melanoma
  TGI: > 100 µM
SK-MEL-28 melanoma
  TGI: > 100 µM
SK-MEL-5 melanoma
  TGI: > 100 µM
SK-OV-3 ovarian
  TGI: > 100 µM
SN12C renal
  TGI: > 100 µM
SNB-19 CNS
  TGI: > 100 µM
SNB-75 CNS
  TGI: > 100 µM
SR leukemia
  TGI: > 100 µM
SW-620 colon
  TGI: > 100 µM
TK-10 renal
  TGI: > 100 µM
U251 CNS
  TGI: > 100 µM
UACC-257 melanoma
  TGI: > 100 µM
UACC-62 melanoma
  TGI: > 100 µM
UO-31 renal
  TGI: > 100 µM
XF 498 CNS
  TGI: > 100 µM

## COc1ccc(C2C(N)=NCC2c2ccccn2)cc1 (stereo not drawn)
786-0 renal
  TGI: > 100 µM
A498 renal
  TGI: > 100 µM
A549 NSCLC
  TGI: > 100 µM
ACHN renal
  TGI: > 100 µM
CAKI-1 renal
  TGI: > 100 µM
CCRF-CEM leukemia
  TGI: > 100 µM
COLO 205 colon
  TGI: > 100 µM
DLD-1 colon
  TGI: > 100 µM
DMS 114 small cell lung
  TGI: > 100 µM
EKVX NSCLC
  TGI: > 100 µM
HCC-2998 colon
  TGI: > 100 µM
HCT-116 colon
  TGI: > 100 µM
HOP-18 NSCLC
  TGI: 97.9 µM
HOP-62 NSCLC
  TGI: > 100 µM
HOP-92 NSCLC
  TGI: > 100 µM
HT29 colon
  TGI: > 100 µM
IGROV1 ovarian
  TGI: > 100 µM
K-562 leukemia
  TGI: > 100 µM
KM12 colon
  TGI: > 100 µM
KM20L2 colon
  TGI: > 100 µM
LOX IMVI melanoma
  TGI: > 100 µM
LXFL 529 NSCLC
  TGI: > 100 µM
M14 melanoma
  TGI: > 100 µM
M19-MEL melanoma
  TGI: > 100 µM
MALME-3M melanoma
  TGI: > 100 µM
MOLT-4 leukemia
  TGI: > 100 µM
NCI-H226 lung
  TGI: > 100 µM
NCI-H23 lung
  TGI: > 100 µM
NCI-H460 lung
  TGI: > 100 µM
NCI-H522 lung
  TGI: > 100 µM
OVCAR-3 ovarian
  TGI: > 100 µM
OVCAR-4 ovarian
  TGI: > 100 µM
OVCAR-5 ovarian
  TGI: > 100 µM
OVCAR-8 ovarian
  TGI: > 100 µM
RPMI-8226 leukemia
  TGI: > 100 µM
RXF 393 renal
  TGI: > 100 µM
RXF-631 renal
  TGI: > 100 µM
SF-268 CNS
  TGI: > 100 µM
SF-295 CNS
  TGI: > 100 µM
SF-539 CNS
  TGI: > 100 µM
SK-MEL-2 melanoma
  TGI: > 100 µM
SK-MEL-28 melanoma
  TGI: > 100 µM
SK-MEL-5 melanoma
  TGI: > 100 µM
SK-OV-3 ovarian
  TGI: > 100 µM
SN12C renal
  TGI: > 100 µM
SNB-19 CNS
  TGI: > 100 µM
SNB-75 CNS
  TGI: > 100 µM
SNB-78 CNS
  TGI: > 100 µM
SR leukemia
  TGI: > 100 µM
SW-620 colon
  TGI: > 100 µM
TK-10 renal
  TGI: > 100 µM
U251 CNS
  TGI: > 100 µM
UACC-257 melanoma
  TGI: > 100 µM
UACC-62 melanoma
  TGI: > 100 µM
UO-31 renal
  TGI: > 100 µM
XF 498 CNS
  TGI: > 100 µM

## COc1cc(/C=C/C(=N\NC(=O)c2ccccc2)c2sc(Nc3ccc(Cl)c(Cl)c3)nc2C)ccc1O
786-0 renal
  TGI: > 100 µM
A549 NSCLC
  TGI: > 100 µM
ACHN renal
  TGI: 87.2 µM
CAKI-1 renal
  TGI: > 100 µM
CCRF-CEM leukemia
  TGI: > 100 µM
COLO 205 colon
  TGI: > 100 µM
DLD-1 colon
  TGI: > 100 µM
DMS 114 small cell lung
  TGI: 71.5 µM
EKVX NSCLC
  TGI: > 100 µM
HCC-2998 colon
  TGI: 91.8 µM
HCT-116 colon
  TGI: > 100 µM
HCT-15 colon
  TGI: > 100 µM
HL-60(TB) leukemia
  TGI: 40 µM
HOP-18 NSCLC
  TGI: 79.3 µM
HOP-62 NSCLC
  TGI: > 100 µM
HOP-92 NSCLC
  TGI: 16.3 µM
HT29 colon
  TGI: > 100 µM
IGROV1 ovarian
  TGI: > 100 µM
K-562 leukemia
  TGI: 95.9 µM
KM12 colon
  TGI: > 100 µM
KM20L2 colon
  TGI: > 100 µM
LOX IMVI melanoma
  TGI: 44.9 µM
LXFL 529 NSCLC
  TGI: > 100 µM
M14 melanoma
  TGI: 93.4 µM
M19-MEL melanoma
  TGI: > 100 µM
MALME-3M melanoma
  TGI: 70.6 µM
MOLT-4 leukemia
  TGI: 66.6 µM
NCI-H226 lung
  TGI: 56 µM
NCI-H23 lung
  TGI: 77.3 µM
NCI-H460 lung
  TGI: > 100 µM
NCI-H522 lung
  TGI: 47.6 µM
OVCAR-3 ovarian
  TGI: 76.6 µM
OVCAR-4 ovarian
  TGI: > 100 µM
OVCAR-5 ovarian
  TGI: 81.1 µM
OVCAR-8 ovarian
  TGI: > 100 µM
RXF 393 renal
  TGI: > 100 µM
RXF-631 renal
  TGI: 72.5 µM
SF-268 CNS
  TGI: > 100 µM
SF-295 CNS
  TGI: > 100 µM
SF-539 CNS
  TGI: > 100 µM
SK-MEL-2 melanoma
  TGI: 64.3 µM
SK-MEL-28 melanoma
  TGI: > 100 µM
SK-OV-3 ovarian
  TGI: > 100 µM
SN12C renal
  TGI: > 100 µM
SNB-19 CNS
  TGI: > 100 µM
SNB-75 CNS
  TGI: > 100 µM
SNB-78 CNS
  TGI: 93.2 µM
SR leukemia
  TGI: 62.3 µM
SW-620 colon
  TGI: > 100 µM
TK-10 renal
  TGI: > 100 µM
U251 CNS
  TGI: 88.9 µM
UACC-257 melanoma
  TGI: > 100 µM
UACC-62 melanoma
  TGI: 26.1 µM
UO-31 renal
  TGI: 77.7 µM
XF 498 CNS
  TGI: 91.3 µM
